The results in this text go back to PMC6054150, “Cytokinin perception in potato: new features of canonical players” (Journal of Experimental Botany, 2018).

Where “and” joins values, the source holds several entries; their conditions need not be identical. Equal entries are not always repeated. Where two headings read alike, the source gives them in different places.

One test deals with StHK2a (Solanum tuberosum, UniProt A0A2P1D005). Nature of the test: Plant membrane (tobacco microsome) hormone binding assay with [3H]trans-zeatin, StHK2a. An excerpt: (§1) The transient transformation of tobacco (Nicotiana benthamiana Domin) leaves was accomplished according to [Sparkes et al. (2006)]. Eight-week-old tobacco plants were infiltrated with a mixture of Agrobacterium tumefaciens carrying CK receptor genes fused to green fluorescent protein (GFP) and the A. tumefaciens helper strain p19 ([Voinnet et al., 2003]), and the expression of receptor genes was checked after 5–6 d with a fluorescence microscope, Axio Imager Z2 (Carl Zeiss Microscopy GmbH), before leaves were processed further for microsome isolation.
(§2) All manipulations were done at 4 °C. Tobacco leaves 6 d after infiltration were homogenized in buffer (3 ml per 1 g of fresh weight) containing 100 mM Tris–HCl (pH 8.0), 2 mM Na2-EDTA, 50 mM KCl, 1 mM DTT, and 1 mM phenylmethylsulfonyl fluoride. The homogenate was filtered through Miracloth (Calbiochem, San Diego, CA, USA), and the filtrate was centrifuged for 5 min at 5000 g. Then supernatant was centrifuged for 40 min at 15000 g. The microsome pellet was resuspended in 50 mM KCl–10% glycerol and the microsome suspension was stored at −70 °C.
(§3) Ligand binding studies were performed in PBS as described previously ([Romanov et al., 2005]; [Lomin et al., 2015]). Studies of pH influence on hormone binding were performed in 50 mM MES–KOH (pH 5–7) or Tris–HCl (pH 7–9) buffers with 50 mM KCl. Kd for [^3H]trans-zeatin (tZ) binding to different receptors was determined in saturation assays followed by data analysis in Scatchard plots.
(§4) To analyse ligand-binding properties of the receptors, a recently developed plant membrane assay system ([Lomin et al., 2015]) was used. Predicted potato CK receptor genes were cloned into pB7FWG2 vectors for transient expression in tobacco leaves. […] Instead of full-length receptor, we clond a genomic sequence of the StHK3a sensory module flanked by transmembrane domains. From the transiently transformed tobacco leaves, a microsomal fraction enriched with individual potato receptors was obtained. The binding assays were conducted using this fraction and tritium-labeled CK. In aggregate, we tested four putative receptors belonging to all three clades: StHK2a, StHK3a (sensory module, further designated as StHK3aSM), StHK4a, and StHK4b.
(§5) First, we determined the pH-dependence of hormone binding to these receptors within the pH range of 5–9 (Fig. 5).
(§6) The interaction of a hormone with a receptor is characterized by the equilibrium dissociation constant (Kd) of the ligand–receptor complex. Kd values were determined by the dose-dependent binding of labeled trans-zeatin to StHKs, and the results were processed by the Scatchard method (Supplementary Fig. S7; [Lomin and Romanov, 2008]).
(§7) Different CKs are usually present in the plant: trans- and cis-zeatins (tZ and cZ), isopentenyladenine (iP), and dihydrozeatin (DZ). In addition to natural CKs, there are many synthetic ones. […] We studied the ligand specificity of putative receptors in competitive experiments where binding of labeled CK was carried out in the presence of various concentrations of certain unlabeled ligands. Based on the obtained competition curves (Supplementary Fig. S8), the apparent Kd values were determined for each ligand as described ([Lomin and Romanov, 2008]). We analysed the interaction of StHKs with six CKs, including five natural ones as well as the synthetic urea-type CK thidiazuron (Table 3).

A further test has as its target StHK3aSM (Solanum tuberosum, UniProt A0A2U9K793). In words: Plant membrane (tobacco microsome) hormone binding assay with [3H]trans-zeatin, StHK3a sensory module.
Excerpt: as §1, §2, §3, §4, §5, §6, §7

Another test deals with StHK4a (Solanum tuberosum, UniProt A0A2U9K790). In words: Plant membrane (tobacco microsome) hormone binding assay with [3H]trans-zeatin, StHK4a.
Excerpt: as §1, §2, §3, §4, §5, §6, §7

The target of the next test is StHK4b (Solanum tuberosum, UniProt A0A2U9K786). Nature of the test: Plant membrane (tobacco microsome) hormone binding assay with [3H]trans-zeatin, StHK4b.
Excerpt: as §1, §2, §3, §4, §5, §6, §7

In test [1] the target is StHKs (StHK2a, StHK3aSM, StHK4a, StHK4b). In words: Competitive binding, summary over the analysed StHKs. Further details: species or system Solanum tuberosum. The note with it: span over StHK2a, read-out: apparent Kd, all analysed StHKs. How it is done: as §3
To analyse ligand-binding properties of the receptors, a recently developed plant membrane assay system ([Lomin et al., 2015]) was used. Predicted potato CK receptor genes were cloned into pB7FWG2 vectors for transient expression in tobacco leaves. […] Instead of full-length receptor, we clond a genomic sequence of the StHK3a sensory module flanked by transmembrane domains. From the transiently transformed tobacco leaves, a microsomal fraction enriched with individual potato receptors was obtained. The binding assays were conducted using this fraction and tritium-labeled CK. […]
Different CKs are usually present in the plant: trans- and cis-zeatins (tZ and cZ), isopentenyladenine (iP), and dihydrozeatin (DZ). […] Based on the obtained competition curves (Supplementary Fig. S8), the apparent Kd values were determined for each ligand as described ([Lomin and Romanov, 2008]). We analysed the interaction of StHKs with six CKs, including five natural ones as well as the synthetic urea-type CK thidiazuron (Table 3).

For the next test, the system named is StHK4 expression. In words: qRT-PCR of CK receptor gene expression after BA treatment of potato plants. It counts as in vivo, Solanum tuberosum. The note with it: leaves; 1.5% sucrose; 1 μM BA, 1 h; on average. How it is done: (§8) Potato cv. Désirée plants were cultivated under standard in vitro conditions at a long (16 h) day for 5–6 weeks on liquid MS medium containing 1.5% or 5% sucrose. For hormone treatment, the medium was replaced with the same one supplemented with N^6-benzyladenine (BA, 1 μM). Tubes were inverted several times to assure uniform plant wetting and then incubated for 1 h under standard conditions. Finally, plant organs (leaves, stems, roots, tubers) were isolated and immediately frozen in liquid nitrogen. Control plants were treated in the same way but without hormone. Total RNA was isolated by the Trizol method ([Brenner et al., 2005]), and served as the template for cDNA synthesis by reverse transcription (Invitrogen). All RNA samples were treated with RNase-free DNase I. The resulting cDNA was checked for genomic DNA contamination by PCR with primers differentiating cDNA and genomic DNA. The band derived from genomic DNA was absent in the separating gel. Expression of genes encoding predicted proteins of the CK signaling system was determined by qRT-PCR. Potato housekeeping genes StEF1α (elongation factor 1-α, AB061263) and StCYC (cyclophilin, AF126551) were used as reference genes ([Nicot et al., 2005]). […]
At 1.5% sucrose, the up-regulation (on average, 2.5-fold) of StHK4 expression was regularly recorded, but only in leaves (Fig. 8). […]
For orientation: Real-time PCR tracks product formation cycle by cycle.

The test system of a further test is StRR-A genes. Nature of the test: qRT-PCR of type A response regulator gene expression after BA treatment of potato plants. The class given is in vivo, Solanum tuberosum. The note with it: 1 μM BA, 1 h; 1.5% sucrose. How it is done: as §8
To validate the results of CK treatment experiments, the effect of CK administration on the transcript level of the genes of type A response regulator (RR-A) genes was analysed. […]

[2] abbreviates: competition with labeled trans-zeatin (tZ value from saturation/Scatchard); mean ± SE; read-out: Apparent Kd StHK2a.
The mark [3] stands for this setting: sensory module, competition with labeled trans-zeatin (tZ value from saturation/Scatchard), mean ± SE, read-out: Apparent Kd StHK3a SM.
The mark [4] stands for this setting: competition with labeled trans-zeatin (tZ value from saturation/Scatchard), mean ± SE, read-out: Apparent Kd StHK4a.
Where [5] appears, read: competition with labeled trans-zeatin (tZ value from saturation/Scatchard), mean ± SE, read-out: Apparent Kd StHK4b.

StHK4a, sequence (A0A2U9K790 entry or part of it): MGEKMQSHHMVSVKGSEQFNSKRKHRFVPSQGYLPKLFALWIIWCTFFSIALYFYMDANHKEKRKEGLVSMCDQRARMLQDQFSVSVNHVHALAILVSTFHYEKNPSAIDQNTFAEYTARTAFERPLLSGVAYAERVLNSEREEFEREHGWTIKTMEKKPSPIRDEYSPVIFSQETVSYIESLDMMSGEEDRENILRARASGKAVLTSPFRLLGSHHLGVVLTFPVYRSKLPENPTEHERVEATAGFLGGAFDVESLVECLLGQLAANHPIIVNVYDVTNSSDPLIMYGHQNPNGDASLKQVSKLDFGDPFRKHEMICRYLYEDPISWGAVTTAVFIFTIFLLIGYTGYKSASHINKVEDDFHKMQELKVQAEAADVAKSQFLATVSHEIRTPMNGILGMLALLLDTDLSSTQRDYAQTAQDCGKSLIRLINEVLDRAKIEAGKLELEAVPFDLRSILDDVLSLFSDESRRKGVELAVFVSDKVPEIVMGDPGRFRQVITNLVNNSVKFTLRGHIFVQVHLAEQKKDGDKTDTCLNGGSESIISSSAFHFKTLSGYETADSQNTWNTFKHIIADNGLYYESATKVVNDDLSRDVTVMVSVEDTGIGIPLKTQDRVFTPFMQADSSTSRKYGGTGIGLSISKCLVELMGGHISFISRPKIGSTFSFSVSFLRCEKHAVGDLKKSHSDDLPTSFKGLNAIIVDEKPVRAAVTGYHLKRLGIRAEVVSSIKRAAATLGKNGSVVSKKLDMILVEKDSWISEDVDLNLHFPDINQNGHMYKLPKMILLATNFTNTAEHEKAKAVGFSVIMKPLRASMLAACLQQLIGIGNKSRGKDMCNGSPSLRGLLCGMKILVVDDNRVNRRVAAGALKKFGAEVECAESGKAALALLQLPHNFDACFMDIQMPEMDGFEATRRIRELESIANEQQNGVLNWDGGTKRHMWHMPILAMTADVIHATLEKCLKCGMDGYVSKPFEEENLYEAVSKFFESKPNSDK
StHK2a, sequence (A0A2P1D005 entry or part of it): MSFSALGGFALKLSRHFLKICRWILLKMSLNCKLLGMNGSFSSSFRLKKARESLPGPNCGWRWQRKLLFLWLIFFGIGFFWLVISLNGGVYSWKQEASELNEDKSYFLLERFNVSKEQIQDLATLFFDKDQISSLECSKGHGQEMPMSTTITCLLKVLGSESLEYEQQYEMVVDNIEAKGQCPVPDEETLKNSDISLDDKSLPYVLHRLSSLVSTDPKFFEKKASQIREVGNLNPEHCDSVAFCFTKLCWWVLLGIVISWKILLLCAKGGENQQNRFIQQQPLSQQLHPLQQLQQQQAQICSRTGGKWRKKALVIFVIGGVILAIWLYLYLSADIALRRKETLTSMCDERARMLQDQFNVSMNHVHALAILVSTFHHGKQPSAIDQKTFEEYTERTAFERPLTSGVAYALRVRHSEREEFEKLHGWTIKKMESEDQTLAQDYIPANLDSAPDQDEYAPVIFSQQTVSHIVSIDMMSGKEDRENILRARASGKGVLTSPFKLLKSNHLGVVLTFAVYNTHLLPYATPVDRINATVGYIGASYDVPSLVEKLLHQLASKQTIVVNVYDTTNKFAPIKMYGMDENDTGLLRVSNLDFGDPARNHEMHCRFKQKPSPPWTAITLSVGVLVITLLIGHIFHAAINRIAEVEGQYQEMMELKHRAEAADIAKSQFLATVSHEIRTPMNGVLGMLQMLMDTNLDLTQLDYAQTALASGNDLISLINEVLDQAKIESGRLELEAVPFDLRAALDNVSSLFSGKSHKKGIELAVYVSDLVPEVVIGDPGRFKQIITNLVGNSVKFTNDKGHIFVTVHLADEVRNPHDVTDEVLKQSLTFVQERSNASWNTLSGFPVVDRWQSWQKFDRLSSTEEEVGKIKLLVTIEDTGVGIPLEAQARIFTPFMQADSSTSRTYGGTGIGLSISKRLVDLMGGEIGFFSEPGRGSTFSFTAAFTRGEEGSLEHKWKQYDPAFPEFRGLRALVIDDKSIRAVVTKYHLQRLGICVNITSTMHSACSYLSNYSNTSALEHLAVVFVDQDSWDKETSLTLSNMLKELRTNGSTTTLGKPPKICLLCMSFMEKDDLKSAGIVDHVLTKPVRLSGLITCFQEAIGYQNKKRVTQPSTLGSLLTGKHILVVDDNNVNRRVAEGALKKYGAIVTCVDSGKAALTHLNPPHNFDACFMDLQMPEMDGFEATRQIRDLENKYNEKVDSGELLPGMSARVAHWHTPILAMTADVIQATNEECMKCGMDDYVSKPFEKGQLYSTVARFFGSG
StHK4b, sequence (A0A2U9K786 entry or part of it): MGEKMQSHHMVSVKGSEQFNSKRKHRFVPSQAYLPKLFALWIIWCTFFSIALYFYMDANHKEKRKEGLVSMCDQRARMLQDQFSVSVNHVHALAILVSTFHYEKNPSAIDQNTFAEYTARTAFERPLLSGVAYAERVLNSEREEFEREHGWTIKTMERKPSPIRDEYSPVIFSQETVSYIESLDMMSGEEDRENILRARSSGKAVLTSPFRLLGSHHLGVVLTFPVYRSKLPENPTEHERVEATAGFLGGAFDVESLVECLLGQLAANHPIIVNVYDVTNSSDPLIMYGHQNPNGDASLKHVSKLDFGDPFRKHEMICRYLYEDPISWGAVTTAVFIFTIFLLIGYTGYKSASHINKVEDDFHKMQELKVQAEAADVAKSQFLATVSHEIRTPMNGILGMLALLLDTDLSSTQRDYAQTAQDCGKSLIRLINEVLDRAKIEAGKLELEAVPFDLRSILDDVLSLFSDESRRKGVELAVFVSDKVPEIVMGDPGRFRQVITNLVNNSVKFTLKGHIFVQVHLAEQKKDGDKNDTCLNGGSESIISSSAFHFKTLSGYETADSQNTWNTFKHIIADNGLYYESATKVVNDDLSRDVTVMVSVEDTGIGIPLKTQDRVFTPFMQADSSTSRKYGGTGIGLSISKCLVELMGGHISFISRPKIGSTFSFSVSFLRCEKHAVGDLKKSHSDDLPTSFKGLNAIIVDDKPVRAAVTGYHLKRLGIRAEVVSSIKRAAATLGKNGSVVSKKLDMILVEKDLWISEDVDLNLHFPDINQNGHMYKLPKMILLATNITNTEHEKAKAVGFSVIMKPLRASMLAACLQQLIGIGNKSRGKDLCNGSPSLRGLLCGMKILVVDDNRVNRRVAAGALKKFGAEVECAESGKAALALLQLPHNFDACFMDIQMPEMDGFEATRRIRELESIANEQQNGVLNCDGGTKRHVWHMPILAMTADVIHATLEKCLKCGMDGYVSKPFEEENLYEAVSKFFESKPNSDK
StHK3aSM, sequence (A0A2U9K793 entry or part of it): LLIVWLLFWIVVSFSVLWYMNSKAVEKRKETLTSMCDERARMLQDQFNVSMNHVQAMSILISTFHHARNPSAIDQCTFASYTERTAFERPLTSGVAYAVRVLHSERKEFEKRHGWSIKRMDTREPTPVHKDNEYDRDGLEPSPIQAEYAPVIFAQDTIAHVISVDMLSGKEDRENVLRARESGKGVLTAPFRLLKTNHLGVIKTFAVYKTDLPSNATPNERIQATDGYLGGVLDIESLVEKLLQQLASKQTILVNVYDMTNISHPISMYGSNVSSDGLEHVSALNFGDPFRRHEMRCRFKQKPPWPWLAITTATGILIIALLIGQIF

`CC(C)=CCNc1ncnc2nc[nH]c12` [N ^6-Isopentenyladenine]: the Kd was determined as 0.0024 ± 0.0002 µM on StHK2a (setting [2]), 0.0052 ± 0.0008 µM on StHK3aSM (setting [3]), 0.0021 ± 0.0002 µM at StHK4a (setting [4]) and 0.0025 ± 0.0003 µM on StHK4b (setting [5]).

Take `C/C(=C\CNc1ncnc2[nH]cnc12)CO` [trans-Zeatin]: the “pH of maximal trans-zeatin binding, StHK2a” value at StHK2a came to 7.5. Further, on StHK2a, the “reduction of binding at pH 5 (factor), StHK2a” value is recorded as 2. Further, the Kd at StHK2a (setting [2]) came to 0.0026 ± 0.0003 µM; on StHK3aSM (setting [3]), 0.0047 ± 0.0006 µM; at StHK4a (setting [4]), 0.0025 ± 0.0007 µM; at StHK4b (setting [5]), 0.003 ± 0.0003 µM. For the same compound, the “pH of maximal trans-zeatin binding, StHK3aSM” value on StHK3aSM is reported as 7. The “reduction of binding at pH 5 (factor), StHK3aSM” value on StHK3aSM is given as 5. The “decrease of ligand binding at pH 5, StHK4a” value on StHK4a (pH 5) is recorded as “about 3 fold”. Further, the “decrease of ligand binding at pH 5, StHK4b” value at StHK4b (pH 5) is “about 3 fold”.

Take `CC(CO)CCNc1ncnc2nc[nH]c12` (stereo not drawn) [Dihydrozeatin]: the Kd was 0.169 ± 0.018 µM on StHK2a (setting [2]); ~0.021 µM and 0.021 µM at StHK3aSM (setting [3]); 0.178 ± 0.037 µM on StHK4a (setting [4]); 0.227 ± 0.033 µM at StHK4b (setting [5]).

In the case of `C/C(=C/CNc1ncnc2nc[nH]c12)CO` [cis-Zeatin], the Kd was 0.102 ± 0.007 µM on StHK2a (read-out: Apparent Kd StHK2a); 0.11 ± 0.039 µM on StHK3aSM (read-out: Apparent Kd StHK3a SM); 0.106 ± 0.022 µM on StHK4a (read-out: Apparent Kd StHK4a); 0.129 ± 0.019 µM at StHK4b (read-out: Apparent Kd StHK4b); over 0.1 µM in test [1].

Consider `c1ccc(CNc2ncnc3nc[nH]c23)cc1` [N ^6-Benzyladenine], for which the Kd at StHK2a (read-out: Apparent Kd StHK2a; competition with labeled trans-zeatin (tZ value from saturation/Scatchard); mean ± SE) came to 0.045 ± 0.0035 µM; on StHK3aSM (Apparent Kd StHK3a SM, sensory module, competition with labeled trans-zeatin (tZ value from saturation/Scatchard), mean ± SE), 0.049 ± 0.007 µM; at StHK4a, 0.055 ± 0.007 µM; on StHK4b it was 0.063 ± 0.012 µM. For the same compound, the “up-regulation of StHK4 expression (BA/control)” value with StHK4 expression was 2.5 fold. For the same compound, the “expression of StRR-A genes” value in the test on StRR-A genes is “rapid and reliable increase”.

Regarding `O=C(Nc1ccccc1)Nc1cnns1` [Thidiazuron], the Kd came out at 0.0014 ± 4e-05 µM on StHK2a (setting [2]), 0.0023 ± 0.0005 µM on StHK3aSM (setting [3]), 0.0126 ± 0.0019 µM on StHK4a (setting [4]) and 0.0172 ± 0.0025 µM on StHK4b (setting [5]).
